The results in this text go back to patent US9120776B2, “Condensed heterocyclic compound” (Takeda Pharmaceutical Company Limited, priority 2011, dated 2015).

Experiment [1] concerns the target T1, RORγt (Homo sapiens, UniProt P51449).
T1 sequence (P51449 1-497 isoform P51449-2): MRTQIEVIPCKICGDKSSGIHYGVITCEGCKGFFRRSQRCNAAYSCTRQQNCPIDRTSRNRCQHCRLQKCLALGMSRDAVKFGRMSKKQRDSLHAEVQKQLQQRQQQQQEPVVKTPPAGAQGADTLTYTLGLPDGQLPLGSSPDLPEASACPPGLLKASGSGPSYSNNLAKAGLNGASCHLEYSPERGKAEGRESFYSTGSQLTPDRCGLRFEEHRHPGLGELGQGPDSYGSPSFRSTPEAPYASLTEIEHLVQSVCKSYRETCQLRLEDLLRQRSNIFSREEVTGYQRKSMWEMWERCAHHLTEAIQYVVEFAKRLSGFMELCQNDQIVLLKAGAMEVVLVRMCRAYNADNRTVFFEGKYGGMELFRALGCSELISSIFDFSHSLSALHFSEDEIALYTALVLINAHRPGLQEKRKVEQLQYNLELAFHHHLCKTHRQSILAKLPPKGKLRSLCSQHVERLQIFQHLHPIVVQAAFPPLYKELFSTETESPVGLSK
The experiment is described as follows: Jurkat Reporter Test (human IL-17 ROR response element luciferase, RORγt vector). Type of experiment: cell-based. The note with it: read-out: inhibitory rate (%). As to the method: The Jurkat cells used for the reporter test were cultured in a culture medium (RPMI (Invitrogen), 10% FCS (AusGeneX), 100 U/mL penicillin, 100 μg/mL streptomycin). On the day of the test, 4×10^7 cells were recovered by a centrifugal operation (1000 rpm, 5 min.) and suspended in PBS (phosphate buffered saline) (Invitrogen). Thereafter, the cells were recovered again by a centrifugal operation, and suspended in 2 mL of R buffer (NEON transfection kit, Invitrogen). […] Gene transfer was performed by Electroporation apparatus (NEON, Invitrogen) under the conditions of pulse voltage 1350 V, interval 10 milliseconds, number of times 3. The cells after gene transfer were suspended in 40 mL of a reaction medium (RPMI, 10% Lipid reduced FCS (HyClone), 10 mM HEPES (pH 7.5), 100 U/mL penicillin, 100 μg/mL streptomycin, 5 μM lovastatin), and plated in a 96 well plate by 90 μL each. A test compound diluted with the reaction medium was added by 10 μL each, and the cells were cultured overnight in an incubator. Bright-Glo (Promega) was added by 100 μL each, and the mixture was stirred at room temperature for 10 min, and the luminescence level was measured by Envision (PerkinElmer).

Experiment [2] has as its target T1, RORγt. The experiment is described as follows: RORγt Binding Test (TR-FRET, fluorescent-labeled cholesterol). More on the design: histidine tag (implied by the Histidine Detection Kit). The note with it: binding inhibitory rate of fluorescent-labeled cholesterol to RORγt at test compound 1 μM. Here is the method:
The binding activity of the test compound to RORγt was measured by a time resolved fluorescence resonance energy transfer method (TR-FRET) utilizing histidine-tagged RORγt, fluorescent-labeled cholesterol (BODIPY-cholesterol, AVIVA) and terbium-labeled anti-histidine tag antibody (Invitrogen). First, a test compound diluted with an assay buffer (20 mM Tris-HCl (pH 7.5), 100 mM NaCl, 1 mM DTT, 0.1% BSA) was added to a 384 well plate by 3 μL each. Then, RORγt diluted with an assay buffer to 240 nM was added by 3 μL each, after which fluorescent-labeled cholesterol diluted with the assay buffer to 12 μM was added by 3 μL each, and the mixture was stood at room temperature for 20 min. Thereafter, a terbium-labeled anti-histidine tag antibody diluted with the assay buffer to 8 nM was added by 3 μL each. The mixture was stood at room temperature for 20 min, and fluorescence intensity (excitation wavelength 320 nm, fluorescence wavelength 520 nm, delay time 100 microseconds) was measured by Envision (PerkinElmer).

Experiment [3] relates to Th17 cells. The experiment is described as follows: Mouse Th17 Cell Differentiation Test (IL-17A in culture supernatant, ELISA). Type of experiment: cell-based. The note with it: inhibitory rate at 10 μM of test compound, mouse CD4 positive naive T cells, 4 days, IL-17A by ELISA; for inhibition at 10 µM: 96 h. As to the method:
CD4 positive naive T cells were collected from the spleen cells of BALB/c mice (female, 8-11w, Charles River Laboratories Japan, Inc.) using CD4+CD62L+ T Cell Isolation kit II (Miltenyi Biotec). The CD4 positive naive T cells in a 96 well plate (3×10^5 cells/well) were stimulated (37° C. for culture) with anti-mouse CD3ε antibody (Bio X cell) (10 μg/mL, solid phase) and anti-CD28 antibody (Bio X cell) (5 μg/mL) for 4 days in the presence of anti-IFN-γ antibody (BioLegend), anti-IL-4 antibody (BioLegend), anti-IL-2 antibody (BioLegend), IL-6, TGF-β and IL-23 to differentiate into Th17 cells. The compound was dissolved in DMSO and then added thereto. The cells were cultured under these conditions for 4 days, and differentiation of the Th17 cells was evaluated by using the concentration of IL-17A, which was measured by ELISA, in the culture supernatant obtained by centrifugation.
A general note: An ELISA detects its analyte on a solid surface through an enzyme-linked reagent.

Experiment [4] concerns the target T1, RORγt. The experiment is described as follows: Cofactor Recruitment Test (Alpha Screen, biotinylated SRC-1 peptide). The format is biochemical. Also on record: histidine tag (implied by the Histidine Detection Kit). The note with it: signal value inhibitory rate at test compound 1 μM. Here is the method:
Cofactor recruitment test was performed by Alpha Screen (Histidine Detection Kit, PerkinElmer) method. First, a test compound diluted with an assay buffer (50 mM Tris-HCl (pH 7.5), 50 mM KCl, 1 mM DTT, 0.1% BSA) was added to a 384 well plate by 5 μL each. […] The mixture was stood in a dark place for 1 hr, and the signal value was measured by Envision (PerkinElmer).

Experiment [5] has as its system human PBMC. The experiment is described as follows: IL17 Production Test in Human PBMC. Type of experiment: cell-based. The note with it: 72 h, inhibitory rate at 10 μM of test compound, anti-CD3/CD28 stimulation, 3 days, IL-17A by ELISA. Here is the method:
Peripheral blood mononuclear cells (PBMC) collected from human peripheral blood by a density gradient centrifugation method were stimulated by Dynabeads (registered trade mark; anti-CD3/CD28 antibody) and cultured at 37° C. for 3 days. The compound was dissolved in DMSO and then added thereto. After culture for 3 days under such conditions, the concentration of IL-17A in the culture supernatant obtained by centrifugation was measured by ELISA to evaluate the effect of the compound on IL-17 production.

Where [6] appears, read: luminescence level inhibitory rate at test compound 3 μM, Jurkat cells.

Read-outs that look alike come from different tables or passages of the source.

For the compound `CCn1c2ccccc2c2cc(NC(=O)CSCC(=O)Nc3ccc(C#N)cc3)ccc21` [Example 24, 2-({2-[(4-cyanophenyl)amino]-2-oxoethyl}sulfanyl)-N-(9-ethyl-9H-carbazol-3-yl)acetamide], the inhibition at 3 µM in experiment [1] (setting [6]) was 100%. Besides, the figures for the inhibition at 1 µM in experiment [2] and in experiment [4] were 98.9% and 101%, respectively. For the same compound, the inhibition at 10 µM in experiment [3] was 96%.
With `CCn1c2ccccc2c2cc(NC(=O)CC(C)CC(=O)Nc3ccc(C#N)c(Cl)c3)ccc21` (stereo not shown) [Example 25, N-(3-chloro-4-cyanophenyl)-N′-(9-ethyl-9H-carbazol-3-yl)-3-methylpentanediamide], in experiment [3] (Mus musculus, CD4 positive), the inhibition at 10 µM came out at 96.1%.
`CCn1c2ccccc2c2cc(NC(=O)CC(C)CC(=O)Nc3ccc(C#N)c(Cl)c3)ccc21` (stereo not shown) [Example 26, N-(3-chloro-4-cyanophenyl)-N′-(9-ethyl-9H-carbazol-3-yl)-3-methylpentanediamide]: the “inhibitory rate (%)” value in experiment [3] (10 µM) worked out at 96.1%.
On to `CCn1c2ccccc2c2cc(NC(=O)C[S+]([O-])CC(=O)Nc3ccc(C#N)cc3)ccc21` (stereo not shown) [Example 34, 2-((2-((4-cyanophenyl)amino)-2-oxoethyl)sulfinyl)-N-(9-ethyl-9H-carbazol-3-yl)acetamide], for which, in experiment [1] (setting [6]), the inhibition at 3 µM worked out at 82.7%. In addition, the inhibition at 1 µM was determined as 94.6% in experiment [2] and 103% in experiment [4]. Besides, the inhibition at 10 µM in experiment [3] is 96.3%.
As for `CCn1c2ccccc2c2cc(NC(=O)CC(C)CCOc3ccc(C#N)c(Cl)c3)ccc21` (stereo not shown) [Example 38, 5-(3-chloro-4-cyanophenoxy)-N-(9-ethyl-9H-carbazol-3-yl)-3-methylpentanamide], the inhibition at 3 µM in experiment [1] (setting [6]) came to 99.4%. For the same compound, the inhibition at 1 µM in experiment [2] was determined as 91.9%; in experiment [4], 102%.
Turning to `CCn1c2ccccc2c2cc(NC(=O)CC(CC(=O)Nc3ccc(C#N)c(Cl)c3)c3ccccc3)ccc21` (stereo not shown) [Example 39, N-(3-chloro-4-cyanophenyl)-N′-(9-ethyl-9H-carbazol-3-yl)-3-phenylpentanediamide], in experiment [1] (Jurkat), the inhibition at 3 µM stood at 93.2%. Besides, the inhibition at 1 µM was determined as 91.4% in experiment [2] and 102% in experiment [4].
Taken in the same sequence, the figures for `CCn1c2ccccc2c2cc(NC(=O)C3CCC3C(=O)Nc3ccc(C#N)c(Cl)c3)ccc21` (stereo not shown) [Example 40, N-(3-chloro-4-cyanophenyl)-N′-(9-ethyl-9H-carbazol-3-yl)cyclobutane-1,2-dicarboxamide] were 99.3%, 96.3% and 102%.
In the case of `CCn1c2ccccc2c2cc(NC(=O)CC(C)CC(=O)Nc3ccc(C#N)c(OC)c3)ccc21` (stereo not shown) [Example 41, N-(4-cyano-3-methoxyphenyl)-N′-(9-ethyl-9H-carbazol-3-yl)-3-methylpentanediamide], in experiment [1] (setting [6]), the inhibition at 3 µM was 96.4%. Besides, the inhibition at 1 µM in experiment [2] is 93.4%; in experiment [4], 100%.
Regarding `CCn1c2ccccc2c2cc(NC(=O)C(C)CCC(=O)Nc3ccc(C#N)c(Cl)c3)ccc21` (stereo not shown) [Example 42, N^5-(3-chloro-4-cyanophenyl)-N^1-(9-ethyl-9H-carbazol-3-yl)-2-methylpentanediamide], the inhibition at 3 µM in experiment [1] (Jurkat) came to 104%. Moreover, the inhibition at 1 µM in experiment [2] and in experiment [4] was 101% each time.
On to `CCn1c2ccccc2c2cc(NC(=O)CCC(C)C(=O)Nc3ccc(C#N)c(Cl)c3)ccc21` (stereo not shown) [Example 43, N^1-(3-chloro-4-cyanophenyl)-N^5-(9-ethyl-9H-carbazol-3-yl)-2-methylpentanediamide], for which the inhibition at 3 µM in experiment [1] (Jurkat) stood at 104%. The inhibition at 1 µM was 100% in experiment [2] and 102% in experiment [4].
Regarding `CCn1c2ccccc2c2cc(NC(=O)CC(C)CCOc3ccc(C#N)c(C)c3)ccc21` (stereo not shown) [Example 44, 5-(4-cyano-3-methylphenoxy)-N-(9-ethyl-9H-carbazol-3-yl)-3-methylpentanamide], the inhibition at 3 µM in experiment [1] (setting [6]) turned out to be 77.8%. For the same compound, the inhibition at 1 µM in experiment [2] worked out at 62.9%; in experiment [4] it was 98.7%.
With `CCn1c2ccccc2c2cc(C(=O)NCC(C)CC(=O)Nc3ccc(C#N)c(Cl)c3)ccc21` (stereo not shown) [Example 48, N-{4-[(3-chloro-4-cyanophenyl)amino]-2-methyl-4-oxobutyl}-9-ethyl-9H-carbazole-3-carboxamide], in experiment [1] (Jurkat), the inhibition at 3 µM worked out at 115%. Besides, the inhibition at 1 µM in experiment [2] was 104%; in experiment [4], 106%. Also, the inhibition at 10 µM in experiment [5] stood at 97.6%; in experiment [3] (Mus musculus, CD4 positive), 96.9%.
On to `CCn1c2ccccc2c2cc(NC(=O)CC(C)CC(=O)Nc3ccc(C#N)nc3)ccc21` (stereo not shown) [Example 49, N-(6-cyanopyridin-3-yl)-N′-(9-ethyl-9H-carbazol-3-yl)-3-methylpentanediamide], for which, in experiment [1] (setting [6]), the inhibition at 3 µM came to 109%. The figures for the inhibition at 1 µM in experiment [2] and in experiment [4] were 93.9% and 104%, respectively.
For `CCn1c2ccccc2c2cc(NC(=O)CC(C)CC(=O)Nc3ccc(C#N)cn3)ccc21` (stereo not shown) [Example 50, N-(5-cyanopyridin-2-yl)-N′-(9-ethyl-9H-carbazol-3-yl)-3-methylpentanediamide], the inhibition at 3 µM in experiment [1] (setting [6]) came to 110%. Besides, the inhibition at 1 µM in experiment [2] worked out at 88.8%; in experiment [4] it was 103%.
Taken in the same sequence, the figures for `CCn1c2ccccc2c2cc(NC(=O)CC(C)CCOc3ccc(C#N)c(C#N)c3)ccc21` (stereo not shown) [Example 55, 5-(3,4-dicyanophenoxy)-N-(9-ethyl-9H-carbazol-3-yl)-3-methylpentanamide] were 102%, 82.2% and 104%.
For the compound `CCn1c2ccccc2c2cc(NC(=O)CC(C)CC(=O)Nc3ccc(C#N)cc3)ccc21` (stereo not shown) [Step 1 of Example 15, N^1-(4-cyanophenyl)-N^5-(9-ethyl-9H-carbazol-3-yl)-3-methylpentanediamide], the inhibition at 10 µM in experiment [3] was 93.2%.
